Reference: ChEMBL document CHEMBL1129097, “1-benzyl-3-thioaryl-2-carboxyindoles as potent non-peptide endothelin antagonists” (Bioorg Med Chem Lett, 1996)

Legend:
Endothelin-1 receptor = target: T1, Endothelin-1 receptor (Homo sapiens, UniProt P25101); experiment: Affinity for human endothelin A receptor expressed in Ltk cells.; format: cell-based
T1 sequence (P25101 whole entry): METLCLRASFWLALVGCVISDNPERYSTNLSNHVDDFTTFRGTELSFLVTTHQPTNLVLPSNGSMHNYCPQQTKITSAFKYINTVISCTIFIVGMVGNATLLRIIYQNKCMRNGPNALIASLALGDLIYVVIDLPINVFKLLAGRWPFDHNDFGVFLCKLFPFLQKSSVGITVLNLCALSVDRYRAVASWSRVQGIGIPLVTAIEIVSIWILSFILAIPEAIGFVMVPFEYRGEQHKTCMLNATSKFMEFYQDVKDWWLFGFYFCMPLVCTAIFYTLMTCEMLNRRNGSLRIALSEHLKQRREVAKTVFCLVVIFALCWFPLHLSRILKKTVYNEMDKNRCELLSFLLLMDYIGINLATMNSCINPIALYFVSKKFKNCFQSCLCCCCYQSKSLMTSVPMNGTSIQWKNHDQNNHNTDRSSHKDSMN

[1] = target: T2, Endothelin receptor type B (Homo sapiens, UniProt P24530); experiment: Affinity for human endothelin B receptor expressed in CHO-K1 cells.; format: cell-based
T2 sequence (P24530 whole entry): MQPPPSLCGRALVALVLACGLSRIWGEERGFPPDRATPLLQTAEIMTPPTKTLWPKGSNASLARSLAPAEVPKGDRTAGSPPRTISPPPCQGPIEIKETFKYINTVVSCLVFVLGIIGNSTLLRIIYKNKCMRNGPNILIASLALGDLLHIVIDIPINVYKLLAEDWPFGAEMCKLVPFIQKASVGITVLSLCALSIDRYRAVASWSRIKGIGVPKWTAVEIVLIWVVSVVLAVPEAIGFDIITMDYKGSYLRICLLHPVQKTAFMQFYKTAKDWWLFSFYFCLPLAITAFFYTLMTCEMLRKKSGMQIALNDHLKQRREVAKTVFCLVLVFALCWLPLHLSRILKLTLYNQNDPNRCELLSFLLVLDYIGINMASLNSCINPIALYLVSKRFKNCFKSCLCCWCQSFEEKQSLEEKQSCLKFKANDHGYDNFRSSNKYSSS

[2] = target: T3, Endothelin receptor, ET-A/ET-B (Homo sapiens, UniProt P24530+P25101); experiment: In vitro inhibition of ET-1 stimulated vasoconstriction in rabbit femoral artery.; format: functional, tissue-based, Oryctolagus cuniculus; conditions: target entry is the homologue from another species
T3 sequence (P24530 whole entry): T2 sequence (P24530 whole entry)
T3 sequence (P25101 whole entry): T1 sequence (P25101 whole entry)

[3] = target: T2, Endothelin receptor type B; experiment: Inhibition of sarafotoxin-6c stimulated vasoconstriction in rabbit pulmonary artery.; format: functional, Oryctolagus cuniculus; conditions: target entry is the homologue from another species; read-out: pA2 (converted)

IC50 (Endothelin-1 receptor)	IC50 [1]	SMILES	pA2 [2]	Kb [3]
8800 nM	> 100000 nM	CC(C)Oc1c(C(=O)O)sc2ccc(OCc3ccccc3)cc12	–	–
–	760 nM	COc1cccc(Sc2c(C(=O)O)n(Cc3ccc4c(c3)OCO4)c3cc4c(cc23)OCO4)c1	–	–
–	> 25000 nM	COc1cccc(Sc2c(C(=O)O)sc3ccccc23)c1	–	–
160 nM	870 nM	COc1cccc(Sc2c(C(=O)O)n(Cc3ccccc3)c3cc(OC)c(OC)cc23)c1	–	–
–	29000 nM	COc1cccc(Sc2c(C(=O)O)n(Cc3cc(OC)c4c(c3)OCO4)c3cc4c(cc23)OCO4)c1	–	–
100 nM	420 nM	O=C(O)c1c(Sc2ccc3c(c2)OCO3)c2cc3c(cc2n1Cc1ccc2c(c1)OCO2)OCO3	–	–
86 nM	–	COc1cccc(Sc2c(C(=O)O)n(Cc3ccc4c(c3)OCO4)c3ccccc23)c1	–	–
20000 nM	1600 nM	COc1cccc(Sc2c(C(=O)O)n(Cc3ccc4c(c3)OCO4)c3cc(OCc4ccccc4)c(OC)cc23)c1	–	–
–	15000 nM	COc1cccc(Sc2c(C(=O)O)n(Cc3ccccc3)c3ccccc23)c1	–	–
620 nM	490 nM	COc1cc2c(Sc3ccc4c(c3)OCO4)c(C(=O)O)n(Cc3ccc4c(c3)OCO4)c2cc1OCc1ccccc1	–	–
–	> 25000 nM	COc1cccc(Sc2c(C(=O)O)oc3ccccc23)c1	–	–
> 2500 nM	> 2500 nM	COc1cc2c(Sc3cc(OC)c(OC)c(OC)c3)c(C(=O)O)n(Cc3ccc4c(c3)OCO4)c2cc1OCc1ccccc1	–	–

SMILES	IC50 (Endothelin-1 receptor)	IC50 [1]	pA2 [2]	Kb [3]
COc1ccc(Sc2c(C(=O)O)n(Cc3ccc4c(c3)OCO4)c3cc4c(cc23)OCO4)cc1OC	41 nM	–	6.3	631 nM
